The source of these data is US9783518B2, “Therapeutic agent and treatment method for ameliorating uremia” (Toray Industries, Inc., priority 2005, dated 2017).

Entries after “also recorded” stand apart in the source; their conditions may differ.

The test system of data set [1] is healthy cats. In words: Observation of general clinical symptoms (adverse events) after administration of beraprost sodium to healthy cats. The arrangement: key to grade of adverse events (diarrhea, vomiting, sedation) / grade of adverse events (vomiting, diarrhea, sedation): no abnormality observed (Grade 0); slight (Grade 1); moderate (Grade 2); severe (Grade 3). It is filed as in vivo, cat. Conditions: for adverse events (clinical symptoms): 5 healthy cats. How it is done:
(§1) In this study, 3 male cats and 2 female cats, totally 5 Japanese cats, aging 3 to 6 years old were used, which were raised in an animal hospital and for which no abnormalities were observed clinically and by blood test. The subject cats were individually placed in each cage in which each cat was allowed to take water ad libitum, and each cat was fed twice a day after measuring the necessary items. For the purpose of acclimatization, the cats were measured for blood pressure noninvasively twice a day for 2 weeks.
Observations of general clinical symptoms caused by administration of beraprost sodium to healthy cats were performed as follows: Whether adverse events such as ataxia, sedation, lying, suffusion of visible mucosa, lacrimation, hypersalivation, vomiting, diarrhea, incontinence and change in respiratory conditions were expressed or not was observed. Observation was performed before administration, and 30 minutes, 1 hour, 2 hours and 3 hours after each administration during the continuous 7 days in which the drug was administered every day. Each evaluation was performed by rating in 4 ranks as follows: Respiratory conditions were ranked into: no abnormality observed (Grade 0); accelerated respiration (Grade 1); hypopnea (Grade 2); and dyspnea (Grade 3). Ataxia was ranked into: no abnormality observed (Grade 0); slight (Grade 1); moderate (Grade 2); and abasia (Grade 3). Sedation (response to verbal contact) and lying (response to verbal contact) were ranked into: no abnormality observed (Grade 0); slight (Grade 1); moderate (Grade 2); and no response (Grade 3). Evaluations of lacrimation, hypersalivation, vomiting, diarrhea and incontinence were ranked into: no abnormality observed (Grade 0); slight (Grade 1); moderate (Grade 2); and severe (Grade 3).
(§2) In each administration series, the same cat was used in each administration series as the subject cat for the correctness of the evaluation of the test drug. To eliminate the influence of the test drug of the previous series, wash out period of 2 weeks were given after the termination of the respective series. In the beraprost sodium administration series and the placebo administration series, the solution-containing capsules prepared in Example 2 were used. Administration was performed orally at fasting twice a day at intervals of 12 hours for continuous 7 days.
(§3) Statistical analysis was carried out using a statistical software Stat View J-4.5 (Abacus Concepts). Since the parameter values before and after the administration to the same individual are compared, significant test was carried out by the paired t-test. In any of the cases, when the significance level was less than 5%, it was judged as significant.

In data set [2] the test system is healthy cats. In words: Blood pressure and heart rate (oscillometric) in healthy cats. The data set is classed as in vivo, cat. As for the experimental part:
as §1
Blood pressure and heart rate were measured as follows: These were noninvasively measured oscillometrically by using Life Scope 9 produced by NIHON KOHDEN. Systolic pressure, diastolic pressure and heart rate were measured 5 times each before the administration of beraprost sodium and 30 minutes, 1 hour, 2 hours and 3 hours after administration of beraprost sodium at the right foreleg of each cat. From the 5 measured values, the maximum and minimum values were excluded, and the average of the remaining 3 measured values was adopted as the measured value of the individual at the time point. The measurements were carried out every time for 7 days, and the responses by the respective administrations had about the same pattern. In the Example, the results (FIGS. 1 and 2) at the first administration of beraprost sodium are shown as a representative.
as §2, §3

Data set [3] has as its system dog with chronic renal failure. In words: Clinical score of uremic symptoms in dog with chronic renal failure (Case-H). The data set is classed as in vivo. How it is done: Testing methods for the patients showing uremia caused by chronic renal failure, employed in Example 4 or later, will now be described. The criteria and evaluation items for the cats and dogs with chronic renal failure are as follows: Diagnosis of uremia and chronic renal failure were performed totally taking clinical findings (including findings of uremia) and the results of the blood test, blood biochemical analysis and urinalysis into consideration. As the clinical findings of uremia, existence and degree of polydipsia and diuresis, dehydration, anorexia, weight loss, vomiting symptom and state of dehydration were observed. Existence of chronic renal failure was judged based on the serum Cre value as generally employed. As reference data for grasping the degree of progress of chronic renal failure, BUN value was also monitored.
Evaluation of degree of improvement of the uremic symptoms was carried out as follows: From the clinical symptoms related to uremia, activity and appetite, which are unlikely to be overlooked and which can be observed universally from before to after the test period, were selected. […] The evaluation was carried out based on the total points (full points were 5 points). Thus, a higher point indicates more improvements in the clinical symptoms. […]

The subject of data set [4] is dog with chronic renal failure. In words: Adverse events in dog with chronic renal failure (Case-H). The data set is classed as in vivo. The settings on record: 150 μg/capsule oral twice a day alone. How it is done: The subject patient to whom beraprost sodium was to be administered was a female dog (hybrid) of 14 years old with a body weight of 6.4 kg. The patient visited the hospital with chief complaints of anorexia and drastic decrease in activity. Based on the past history, clinical observations and results of clinical test, the dog was diagnosed as chronic renal failure. The clinical score at the first visit was as low as 2 points, and treatment with Covalzin at a dose of 200 mg/BID was started. […] In view of this, after obtaining consent by the client, treatment with Covalzin was stopped, and switched to administration of beraprost sodium alone. Beraprost sodium was diluted with polyethylene glycol (Wako) to attain a dose of 150 μg/capsule, and was divided into capsules (size 5 Shionogi Qualicaps). Beraprost sodium was orally administered twice a day at fasting. […] In the above-described series of therapy, feeding of a formula meal and infusion were not performed at all. […] Based on the above, it was first discovered that in chronic renal failure of dogs, in addition to cats, the effect of beraprost sodium to ameliorate uremic symptoms is clearly shown in spite of the fact that Serum Cre value and BUN value which are markers of renal function indicative of renal failure are continuously worsened.

In data set [5] the test system is cats with chronic renal failure. In words: Clinical score of uremic symptoms (activity + appetite) in cats with chronic renal failure. It is filed as in vivo, cat. The settings on record: Case-G; 40 μg/head/BID; Day 14, kept up to Day 56; 3 points before.
For data set [6], the system named is rat glomerulonephritis models. The settings on record: prophylactic administration before the nephritis-inducing substance; cited from earlier work.
Data set [7] concerns patients with diabetic nephropathy. The settings on record: cited from earlier work.
Setting [8] is: first administration, 10-100 μg/kg oral.

With `CC#CC[C@@H](C)[C@H](O)/C=C/[C@@H]1[C@H]2c3cccc(CCCC(=O)[O-])c3O[C@H]2C[C@H]1O.[Na+]` (mixture of isomers) [beraprost sodium, Sodium rac-(1R,2R,3aS,8bS)-2,3,3a,8b-tetrahydro-2-hydroxy-1-[(E)-(3S,4RS)-3-hydroxy-4-methyloct-1-en-6-ynyl]-1H-cyclopenta[b][1]benzofuran-5-butanoate], in the data set on healthy cats [1] (10 μg/kg/BID oral, 7 days), the “adverse events (clinical symptoms)” value is listed as “not observed at all”. Also, the “adverse events (clinical symptoms)” value in the data set on healthy cats [1] (30 μg/kg/BID oral, 7 days) is “not observed at all”. In addition, the “grade of adverse events (diarrhea, vomiting, sedation)” value in the data set on healthy cats [1] (70 μg/kg/BID oral, 7 days) was “Grade 1”. Further, the “cases with adverse events such as diarrhea, vomiting and sedation” value with healthy cats [1] (70 μg/kg/BID oral, 7 days, sporadic, 2 to 6 days after administration) is on record as 2/5. In addition, in the data set with healthy cats [1] (100 μg/kg/BID oral), the “time of occurrence of adverse events after the administration” value was ≤ 2 h. Besides, the “grade of adverse events (vomiting, diarrhea, sedation)” value in the data set on healthy cats [1] (100 μg/kg/BID oral, 7 days) was “Grade 2”. For the same compound, the “cats with vomiting, diarrhea and sedation” value in the data set on healthy cats [1] (100 μg/kg/BID oral, 7 days, from Day 2, frequent) is “all cats”. In addition, in the data set on healthy cats [1] (70 and 100 μg/kg/BID series, after 7 days), the “reversibility of adverse events” value is “disappeared by the next day of the final administration”. Besides, the “maximum change in heart rate (increase)” value with healthy cats [2] (100 μg/kg oral, 30 minutes after administration) is recorded as “about 25%”. Besides, the “time to restoration of heart rate to the level before administration” value with healthy cats [2] (any dose (10-100 μg/kg oral)) was ≤ 2 h. Besides, in the data set on healthy cats [2] (setting [8]), the diastolic pressure entry was “No significant change”, the pulse pressure entry is listed as “No significant change” and the systolic pressure entry is “No significant change”. For the same compound, the “change in heart rate” value in the data set with healthy cats [2] (from 30 μg/kg/BID oral, 30 minutes to 1 hour after administration, not at 10 μg/kg/BID) was “significant (p<0.05) dose-dependent increase”. Moreover, the “clinical score (full points 5)” value in data set [3] (150 μg/capsule oral twice a day alone, first month, 3 points before) is 4 points. Moreover, in data set [3] (after start of beraprost sodium alone), the uremic symptoms entry was “quickly remitted and ameliorated”. Also, the “adverse events such as diarrhea, vomiting” value in data set [4] was “no adverse event; also recorded: no adverse action”. The “clinical score (full points 5)” value in data set [5] is reported as 5 points. For the same compound, in data set [6], the “onset of nephritis (urinary excretion of albumin)” value is “prevented”. Besides, in data set [7], the urinary microalbumin entry is recorded as “decreased”.
